The values below come from patent publication US10246462B2, “Chemokine receptor modulators and uses thereof” (FLX Bio, Inc., priority 2016, dated 2019).

Structures are written as SMILES. Counter-ions that a name gives are not always drawn.

One may read the IC50 as the concentration that gives 50% inhibition.

This experiment addresses CCR4 (Homo sapiens (Human), UniProt P51679). Description: Calcium mobilization (Ca Flux) assay. In kind it is cell-based. The method, then: Calcium Mobilization Assay. Calcium mobilization experiments may be performed by labeling the human T-cell line CEM with […] dye (45 min at room temperature), washing with PBS, and re-suspending into flux buffer (HBSS with 1% FBS).
On the technique in general: Calcium assays in cells follow changes in intracellular calcium, usually with a dye or a luminescent sensor.

Sequence of CCR4 (P51679 whole entry): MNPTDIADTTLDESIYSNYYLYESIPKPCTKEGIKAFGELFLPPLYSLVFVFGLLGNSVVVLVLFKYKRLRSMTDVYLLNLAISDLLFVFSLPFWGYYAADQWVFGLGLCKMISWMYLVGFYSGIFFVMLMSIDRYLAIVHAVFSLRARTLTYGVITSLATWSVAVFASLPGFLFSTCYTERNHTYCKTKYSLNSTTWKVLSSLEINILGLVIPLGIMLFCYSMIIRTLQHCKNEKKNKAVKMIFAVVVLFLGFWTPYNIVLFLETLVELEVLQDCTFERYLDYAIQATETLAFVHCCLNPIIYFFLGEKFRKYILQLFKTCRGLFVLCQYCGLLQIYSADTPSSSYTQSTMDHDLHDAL

Consider `C[C@@H]1CC(c2cnc3c(C#N)nn([C@H](C)c4ccc(Cl)cc4Cl)c3n2)=CC[C@@H]1N1CCC[C@H]1CN` [Example 81, 6-((4S,5R)-4-((S)-2-(Aminomethyl)pyrrolidin-1-yl)-5-methylcyclohex-1-en-1-yl)-1-((R)-1-(2,4-dichlorophenyl)ethyl)-1H-pyrazolo[3,4-b]pyrazine-3-carbonitrile hydrochloride], for which the IC50 lay in the range of 100 to 500 nM.
Then `C[C@@H]1CC(c2cnc3c(C#N)nn([C@H](C)c4ccc(Cl)cc4Cl)c3n2)=CC[C@@H]1N1CCC[C@H]1CNS(C)(=O)=O` [Example 82, N—(((S)-1-((1S,6R)-4-(3-Cyano-1-((R)-1-(2,4-dichlorophenyl)ethyl)-1H-pyrazolo[3,4-b]pyrazin-6-yl)-6-methylcyclohex-3-en-1-yl)pyrrolidin-2-yl)methyl)methanesulfonamide hydrochloride], with 100 to 500 nM; and `C[C@@H]1CC(c2cnc3c(C#N)nn([C@H](C)c4ccc(Cl)cc4Cl)c3n2)=CCC1N1CCC[C@H]1C` (stereo partly shown) [Example 83], with less than 100 nM; and `Cc1nn([C@H](C)c2ccc(Cl)cc2Cl)c2nc(C3=CC[C@H](N4CCC[C@H]4C(N)=O)[C@H](C)C3)cnc12` [Example 86, (S)-1-((1S,6R)-4-(1-((R)-1-(2,4-Dichlorophenyl)ethyl)-3-methyl-1H-pyrazolo[3,4-b]pyrazin-6-yl)-6-methylcyclohex-3-en-1-yl)pyrrolidine-2-carboxamide hydrochloride], with 100 to 500 nM.
Then `C[C@@H]1CC(c2cnc3c(C#N)nn([C@H](C)c4ccc(Cl)cc4Cl)c3n2)=CCC1N1CCC[C@H]1C(O)CS(C)(=O)=O` (stereo partly drawn) [Example 87, 1-((R)-1-(2,4-Dichlorophenyl)ethyl)-6-((4S,5R)-4-((2S)-2-(1-hydroxy-2-(methylsulfonyl)ethyl)pyrrolidin-1-yl)-5-methylcyclohex-1-en-1-yl)-1H-pyrazolo[3,4-b]pyrazine-3-carbonitrile hydrochloride], with less than 100 nM.
Then `CC1CC(c2cnc3c(C(F)(F)F)nn([C@H](C)c4ccc(Cl)cc4Cl)c3n2)=CCC1N1CCC[C@H]1C` (stereo partly drawn) [Example 88, 1-((R)-1-(2,4-Dichlorophenyl)ethyl)-6-(5-methyl-4-((R)-2-methylpyrrolidin-1-yl)cyclohex-1-en-1-yl)-3-(trifluoromethyl)-1H-pyrazolo[3,4-b]pyrazine trifluoroacetic acid], with 100 to 500 nM.
Turning to `CC1CC(c2cnc3c(C(F)(F)F)nn([C@H](C)c4ccc(Cl)cc4Cl)c3n2)=CCC1N1CCC[C@H]1CO` (stereo partly shown) [Example 89], the half-inhibitory concentration (IC50) is 100 to 500 nM.
As for `C[C@@H]1CN(c2cnc3c(C#N)nn([C@H](C)c4ccc(Cl)cc4F)c3n2)CC[C@@H]1N1CCC[C@H]1CCC(=O)O` [Example 90, 3-((S)-1-((3R,4S)-1-(1-((R)-1-(4-chloro-2-fluorophenyl)ethyl)-3-cyano-1H-pyrazolo[3,4-b]pyrazin-6-yl)-3-methylpiperidin-4-yl)pyrrolidin-2-yl)propanoic acid hydrochloric acid], the IC50 is less than 100 nM.
For `CNC(=O)[C@@H]1CCCN1[C@H]1CC=C(c2cnc3c(C#N)nn([C@H](C)c4ccc(Cl)cc4Cl)c3n2)C[C@H]1C` [Example 91, (S)-1-((1S,6R)-4-(3-Cyano-1-((R)-1-(2,4-dichlorophenyl)ethyl)-1H-pyrazolo[3,4-b]pyrazin-6-yl)-6-methylcyclohex-3-en-1-yl)-N-methylpyrrolidine-2-carboxamide trifluoroacetate] the value was 100 to 500 nM.
Then `CCN(CC1(O)COC1)C1CC=C(c2cnc3c(C#N)nn([C@H](C)c4ccc(Cl)cc4Cl)c3n2)CC1C` (stereo partly drawn) [Example 92, 1-((R)-1-(2,4-dichlorophenyl)ethyl)-6-(4-(ethyl((3-hydroxyoxetan-3-yl)methyl)amino)-5-methylcyclohex-1-en-1-yl)-1H-pyrazolo[3,4-b]pyrazine-3-carbonitrile], with 100 to 500 nM.
